In brackets after ≈: the same amount, converted by molar mass.

One test has as its system Desmodesmus subspicatus. In words: Antimicrobial activity against Scenedesmus subspicatus SAG 86.81 assessed as growth inhibition. Format: functional.
Another test relates to Tetradesmus obliquus. In words: Antimicrobial activity against Acutodesmus obliquus SAG 276-1 assessed as growth inhibition. The test is classed as functional.
The subject of the next test is Synechococcus. In words: Antimicrobial activity against cyanobacteria Synechococcus PCC 6911 assessed as growth inhibition. Format: functional.
Test [1] has as its system Lemna minor. In words: Herbicidal activity against Lemna minor (common duckweed) at 100 uM. Format: functional.
Test [2] in a line: Inhibition of PS2 at 100 uM.
Test [3] deals with Lemna minor. Kind of test: Herbicidal activity against Lemna minor (common duckweed) at 50 uM. Format: functional. The following applies: read-out: GI.
A short description of test [4]: Inhibition of PS2 at 50 uM.
Test [5] has as its system Avena fatua. In words: Herbicidal activity against Avena fatua assessed as growth reduction at 3 mg/ha. The test is classed as functional.
The subject of test [6] is Setaria faberi. Kind of test: Herbicidal activity against Setaria faberi (Giant Foxtail) assessed as growth reduction at 3 mg/ha. Format: functional.
The subject of test [7] is Ipomoea hederacea. In words: Herbicidal activity against Ipomoea hederacea (ivy-leaved morning glory) assessed as growth reduction at 3 mg/ha. The test is classed as functional.
The test system of test [8] is Helianthus annuus. In words: Herbicidal activity against Helianthus annuus (sunflower) assessed as growth reduction at 3 mg/ha. The test is classed as functional.
Test [9] has as its system Avena fatua. Kind of test: Herbicidal activity against Avena fatua assessed as growth reduction at 1 mg/ha. The test is classed as functional.
In test [10] the test system is Ipomoea hederacea. Kind of test: Herbicidal activity against Ipomoea hederacea (ivy-leaved morning glory) assessed as growth reduction at 1 mg/ha. The test is classed as functional.
For test [11], the system named is Setaria faberi. Kind of test: Herbicidal activity against Setaria faberi (Giant Foxtail) assessed as growth reduction at 1 mg/ha. Format: functional.
In test [12] the test system is Helianthus annuus. In words: Herbicidal activity against Helianthus annuus (sunflower) assessed as growth reduction at 1 mg/ha. The test is classed as functional.

For orientation: MIC means the lowest concentration found to suppress growth. As usually defined, the inhibition is the relative decrease from the control value, in per cent. Read a high inhibition as a strong effect. Consider `CCCCCC#CC#C/C=C/CC(C)C[C@@H]1C[C@H](C)/C(=C2/C(=O)C(C)N(C)C2=O)N1N` (stereo not given in full) [FISCHERELLIN A], for which the MIC in the test on Desmodesmus subspicatus, in the test with Tetradesmus obliquus and with Synechococcus was 0.5 µM (≈ 0.212 µg/mL) each time. The same compound had an inhibition at 100 µM with Lemna minor [1] of 74%. Besides, the inhibition in [2] worked out at 98%; in test [4], 60%. Further, the inhibition of growth at 50 µM in the test on Lemna minor [3] worked out at 44%.
With `C[C@H]1CCC[C@H]2O[C@@H]2COc2ccc(cc2)C[C@H]2NC(=O)/C(=C/1O)C2=O` [MACROCIDIN A], the “growth inhibition (GI)” value in the test on Avena fatua [5] amounted to 0%; in the test with Setaria faberi [6], 65%; with Ipomoea hederacea [7] it was 0%; in the test on Helianthus annuus [8], 50%.
`C[C@@H]1/C(O)=C2/C(=O)N[C@H](Cc3ccc(cc3)OC[C@H]3O[C@@H]3CCC1O)C2=O` (stereo not given in full) [MACROCIDIN B]: the “growth inhibition (GI)” value in the test with Avena fatua [9] was found to be 0%; in the test with Ipomoea hederacea [10], 0%; in the test with Setaria faberi [11], 20%; with Helianthus annuus [12], 50%.

Values taken from ChEMBL document CHEMBL3045666, “The phytotoxicity of natural tetramic acid derivatives” (Pest Manag Sci, 2011).
